These results are taken from patent US10925876B2, “Methods for using triazolo-pyrazinyl soluble guanylate cyclase activators in fibrotic disorders” (Merck Sharp & Dohme Corp., priority 2016, dated 2021).

The experiment has as its target T1, sGC α1/β1 heterodimer (Homo sapiens, UniProt Q02108+Q02153).
T1 construct: expressed in transfected cells
T1 sequence (Q02108 1-690): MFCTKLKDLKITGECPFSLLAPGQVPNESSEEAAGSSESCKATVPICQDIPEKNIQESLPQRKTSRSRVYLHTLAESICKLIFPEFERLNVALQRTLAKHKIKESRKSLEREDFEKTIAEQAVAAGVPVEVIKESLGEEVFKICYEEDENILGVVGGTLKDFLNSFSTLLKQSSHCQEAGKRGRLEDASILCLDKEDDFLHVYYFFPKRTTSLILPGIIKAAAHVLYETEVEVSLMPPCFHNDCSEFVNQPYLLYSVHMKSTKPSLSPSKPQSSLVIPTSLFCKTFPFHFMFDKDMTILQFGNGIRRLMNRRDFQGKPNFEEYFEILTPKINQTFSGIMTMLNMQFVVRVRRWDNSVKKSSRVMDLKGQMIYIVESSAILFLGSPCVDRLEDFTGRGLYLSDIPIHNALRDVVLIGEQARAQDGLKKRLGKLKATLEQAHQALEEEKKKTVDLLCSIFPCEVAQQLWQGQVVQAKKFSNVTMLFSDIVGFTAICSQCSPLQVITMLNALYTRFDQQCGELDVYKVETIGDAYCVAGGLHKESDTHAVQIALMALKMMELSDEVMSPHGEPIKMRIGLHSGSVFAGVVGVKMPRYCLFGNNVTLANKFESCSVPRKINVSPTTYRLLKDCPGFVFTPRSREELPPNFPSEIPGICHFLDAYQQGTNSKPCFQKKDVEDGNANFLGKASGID
T1 sequence (Q02153 1-619): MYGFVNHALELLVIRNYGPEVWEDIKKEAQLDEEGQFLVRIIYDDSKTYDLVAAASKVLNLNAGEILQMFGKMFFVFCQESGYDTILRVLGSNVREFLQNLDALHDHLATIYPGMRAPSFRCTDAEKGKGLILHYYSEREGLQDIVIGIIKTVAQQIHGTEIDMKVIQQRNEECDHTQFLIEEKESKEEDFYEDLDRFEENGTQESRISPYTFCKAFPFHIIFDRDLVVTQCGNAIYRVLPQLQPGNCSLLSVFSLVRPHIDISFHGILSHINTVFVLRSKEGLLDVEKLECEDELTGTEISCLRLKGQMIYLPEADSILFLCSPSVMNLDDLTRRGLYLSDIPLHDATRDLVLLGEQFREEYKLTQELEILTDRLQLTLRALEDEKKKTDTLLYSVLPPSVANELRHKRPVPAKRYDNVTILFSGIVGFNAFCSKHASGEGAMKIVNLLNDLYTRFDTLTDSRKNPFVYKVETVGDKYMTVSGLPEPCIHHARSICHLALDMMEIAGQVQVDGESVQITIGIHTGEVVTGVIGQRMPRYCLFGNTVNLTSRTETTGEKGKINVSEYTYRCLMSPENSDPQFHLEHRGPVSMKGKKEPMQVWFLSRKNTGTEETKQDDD
As to the kind of experiment: Cell-Based sGC Functional Assay (CASA Assay), cGMP generation in CHO-K1/sGC cells. Conditions: maximum cGMP production of Compound A set to 100% activation, read-out: % Act. (percent activation relative to Compound A). From the text:
sGC is a heme-containing enzyme that converts GTP to secondary messenger cGMP. Increases in cGMP levels affect several physiological processes including vasorelaxation through multiple downstream pathways. […] Heme-dependent activators (HDAs) preferentially activate sGC containing a ferrous heme group. To determine the effect of sGC activators on enzyme activity, the CASA assay was developed to monitor the generation of cGMP in a cell line that stably expresses the heterodimeric sGC protein.
A CHO-K1 cell line stably expressing the sGC α1/β1 heterodimer was generated using a standard transfection protocol. CHO-K1 cells were transfected with plasmids pIREShyghsGCα1 and pIRESneo-hsGCβ1 simultaneously using FUGENE reagent. Clones that stably express both subunits were selected with hygromycin and neomycin for ˜2 weeks. Clone #7 was chosen for the assay and was designated CHO-K1/sGC. CHO-K1/sGC cells were maintained in F-K12 medium containing 10% heat-inactivated Fetal Bovine Serum (FBS), 100 μg/mL penicillin/streptomycin, 0.5 mg/mL hygromycin and 0.25 mg/mL G418. The cells were then cryopreserved in LN2. On the day of the assay, cells thawed and resuspended in EBSS Assay Buffer (Sigma, E3024) supplemented with 5 mM MgCl2, 10 mM HEPES (4-(2-hydroxyethyl)piperazine-1-ethanesulfonic acid) and 0.05% BSA (bovine serum albumin) (EAB) and cell density was then adjusted to 4×10^5/mL with EAB. IBMX (3-isobutyl-1-methylxanthin, 0.5 mM) was added to inhibit degradation of cGMP. Compounds were diluted from DMSO stock solutions and added to the assay at a final DMSO concentration of 2.5%. Cells were incubated with compounds in the presence and absence of 1 μM of Diethylenetriamine/nitric oxide adduct (DETA-NO; Sigma, 17018) for 1 hr at 37° C. At the end of the incubation period, the reaction was terminated and the cells were lysed with the detection reagents from Cisbio Kits. The level of intracellular cGMP was determined using an HTRF-based assay kit (CisBio, 62GM2PEC), which detects the displacement of a fluorescence labeled cGMP from its specific antibody. The cGMP produced by test compounds was directly compared to the maximum cGMP production (this value was set to equal 100% activation.) of the published sGC-HDA Compound A:
[drawing 298] (Example 1 in WO 2010/065275, published Jun. 10, 2010). The test compounds' activities were then expressed as a percentage of Compound A, the standard in every experiment. This percent activation was calculated either in the presence or absence of DETA-NO which was then plotted. IP and maximum fold induction was derived using ADA analysis software for 4P fit.
In the case of `CC1(c2ccc(C#N)cn2)C(=O)Nc2nc(-c3cn4ncnc4c(CCCC(F)(F)F)n3)nc(N)c21` (stereo not drawn) [Example 48A, 6-(4-amino-5-methyl-6-oxo-2-(8-(4,4,4-trifluorobutyl)-[1,2,4]triazolo[1,5-a]pyrazin-6-yl)-6,7-dihydro-5H-pyrrolo[2,3-d]pyrimidin-5-yl)nicotinonitrile], the Emax was found to be 85%.

On to `CC1(c2cnc(C(F)(F)F)cn2)C(=O)Nc2nc(-c3cn4ncnc4c(CCCC(F)(F)F)n3)nc(N)c21` (stereo not drawn) [Example 50B, 4-amino-5-methyl-2-(8-(4,4,4-trifluorobutyl)-[1,2,4]triazolo[1,5-a]pyrazin-6-yl)-5-(5-(trifluoromethyl)pyrazin-2-yl)-5H-pyrrolo[2,3-d]pyrimidin-6(7H)-one], for which the Emax worked out at 191%.

As for `CCCc1nc(-c2nc(N)c3c(n2)NC(=O)[C@@]3(C)c2ccc(F)cc2)cn2ncnc12` [Example 52A, (S)-4-amino-5-(4-fluorophenyl)-5-methyl-2-(8-propyl-[1,2,4]triazolo[1,5-a]pyrazin-6-yl)-5,7-dihydro-6H-pyrrolo[2,3-d]pyrimidin-6-one], the Emax was 96%.

`CCCc1nc(-c2nc(N)c3c(n2)NC(=O)C3(C)c2ccc(Cl)cc2)cn2ncnc12` (stereo not drawn) [Example 53A, 4-amino-5-(4-chlorophenyl)-5-methyl-2-(8-propyl-[1,2,4]triazolo[1,5-a]pyrazin-6-yl)-5H-pyrrolo[2,3-d]pyrimidin-6(7H)-one]: the Emax came out at 122%.

As for `CCCc1nc(-c2nc(N)c3c(n2)NC(=O)C3(C)c2ccc(F)cn2)cn2ncnc12` (stereo not drawn) [Example 54B, 4-amino-5-(5-fluoropyridin-2-yl)-5-methyl-2-(8-propyl-[1,2,4]triazolo[1,5-a]pyrazin-6-yl)-5H-pyrrolo[2,3-d]pyrimidin-6(7H)-one], the Emax is 210%.

Take `CCCc1nc(-c2nc(N)c3c(n2)NC(=O)C3(C)c2ccc(Cl)c(F)c2)cn2ncnc12` (stereo not drawn) [Example 55B]: the Emax is 99%.

With `CCCc1nc(-c2nc(N)c3c(n2)NC(=O)C3(c2ccc(Cl)cn2)C2CC2)cn2ncnc12` (stereo not drawn) [Example 57A, 4-amino-5-(5-chloropyridin-2-yl)-5-cyclopropyl-2-(8-propyl-[1,2,4]triazolo[1,5-a]pyrazin-6-yl)-5H-pyrrolo[2,3-d]pyrimidin-6(7H)-one], the Emax was 119%.

With `CCCc1nc(-c2nc(N)c3c(n2)NC(=O)C3(c2ccc(F)c(F)c2)C2CC2)cn2ncnc12` (stereo not drawn) [Example 58A, 4-amino-5-cyclopropyl-5-(3,4-difluorophenyl)-2-(8-propyl-[1,2,4]triazolo[1,5-a]pyrazin-6-yl)-5H-pyrrolo[2,3-d]pyrimidin-6(7H)-one], the Emax was 169%.

Consider `CCCc1nc(-c2nc(N)c3c(n2)NC(=O)C3(c2ccc(F)cn2)C2CC2)cn2ncnc12` (stereo not drawn) [Example 59A, 4-amino-5-cyclopropyl-5-(5-fluoropyridin-2-yl)-2-(8-propyl-[1,2,4]triazolo[1,5-a]pyrazin-6-yl)-5H-pyrrolo[2,3-d]pyrimidin-6(7H)-one], for which the Emax was determined as 119%.

Consider `CCCCc1nc(-c2nc(N)c3c(n2)NC(=O)C3(C)c2ccc(Cl)c(F)c2)cn2ncnc12` (stereo not drawn) [Example 62B, 4-amino-2-(8-butyl-[1,2,4]triazolo[1,5-a]pyrazin-6-yl)-5-(4-chloro-3-fluorophenyl)-5-methyl-5H-pyrrolo[2,3-d]pyrimidin-6(7H)-one], for which the Emax is 267%.

On to `CCCCc1nc(-c2nc(N)c3c(n2)NC(=O)C3(C)c2ccc(Cl)cc2)cn2ncnc12` (stereo not drawn) [Example 63A, 4-amino-2-(8-butyl-[1,2,4]triazolo[1,5-a]pyrazin-6-yl)-5-(4-chlorophenyl)-5-methyl-5H-pyrrolo[2,3-d]pyrimidin-6(7H)-one], for which the Emax was found to be 187%.

Regarding `CCCCc1nc(-c2nc(N)c3c(n2)NC(=O)C3(C)c2ccc(F)c(F)c2)cn2ncnc12` (stereo not drawn) [Example 64B, 4-amino-2-(8-butyl-[1,2,4]triazolo[1,5-a]pyrazin-6-yl)-5-(3,4-difluorophenyl)-5-methyl-5H-pyrrolo[2,3-d]pyrimidin-6(7H)-one], the Emax was 90%.

Regarding `CCCCc1nc(-c2nc(N)c3c(n2)NC(=O)C3(c2ccc(F)cn2)C2CC2)cn2ncnc12` (stereo not drawn) [Example 66A, 4-amino-2-(8-butyl-[1,2,4]triazolo[1,5-a]pyrazin-6-yl)-5-cyclopropyl-5-(5-fluoropyridin-2-yl)-5H-pyrrolo[2,3-d]pyrimidin-6(7H)-one], the Emax was 162%.

As to `CCCCc1nc(-c2nc(N)c3c(n2)NC(=O)C3(c2ccc(Cl)cn2)C2CC2)cn2ncnc12` (stereo not drawn) [Example 68A, 4-amino-2-(8-butyl-[1,2,4]triazolo[1,5-a]pyrazin-6-yl)-5-(5-chloropyridin-2-yl)-5-cyclopropyl-5H-pyrrolo[2,3-d]pyrimidin-6(7H)-one], the Emax was 113%.

On to `CCCCc1nc(-c2nc(N)c3c(n2)NC(=O)C3(C)c2ccc(Cl)cn2)cn2ncnc12` (stereo not drawn) [Example 69A, 4-amino-2-(8-butyl-[1,2,4]triazolo[1,5-a]pyrazin-6-yl)-5-(5-chloropyridin-2-yl)-5-methyl-5H-pyrrolo[2,3-d]pyrimidin-6(7H)-one], for which the Emax was found to be 158%.

For `CCCCc1nc(-c2nc(N)c3c(n2)NC(=O)C3(c2ccc(C(F)(F)F)cn2)C2CC2)cn2ncnc12` (stereo not drawn) [Example 70A, 4-amino-2-(8-butyl-[1,2,4]triazolo[1,5-a]pyrazin-6-yl)-5-cyclopropyl-5-(5-(trifluoromethyl)pyridin-2-yl)-5H-pyrrolo[2,3-d]pyrimidin-6(7H)-one], the Emax is 133%.

For `CCCCc1nc(-c2nc(N)c3c(n2)NC(=O)C3(C)c2ccc(C)cn2)cn2ncnc12` (stereo not drawn) [Example 71B, 4-amino-2-(8-butyl-[1,2,4]triazolo[1,5-a]pyrazin-6-yl)-5-methyl-5-(5-methylpyridin-2-yl)-5H-pyrrolo[2,3-d)pyrimidin-6(7H)-one], the Emax amounted to 118%.

For the molecule `CC1(c2ccc(Cl)c(F)c2)C(=O)Nc2nc(-c3cn4ncnc4c(CCC(F)(F)F)n3)nc(N)c21` (stereo not drawn) [Example 75B, 4-amino-5-(4-chloro-3-fluorophenyl)-5-methyl-2-(8-(3,3,3-trifluoropropyl)-[1,2,4]triazolo[1,5-a]pyrazin-6-yl)-5H-pyrrolo[2,3-d]pyrimidin-6(7H)-one], the Emax worked out at 136%.
